Reference: patent US20230133958A1, “COMPOUNDS USEFUL IN MODULATING EGFR AND PI3K” (Mekanistic Therapeutics LLC, priority 2021, published 2023)
pIC50: −log10 of the molar value.

Tests used:
SNB-75 = assay: NCI COMPARE panel (SRB growth inhibition), SNB-75; assay type: cell-based; conditions: Homo sapiens; CNS Cancer, SNB-75, 48 h
Method: (§1) The human tumor cell lines of the cancer screening panel are grown in RPMI 1640 medium containing 5% fetal bovine serum and 2 mM L-glutamine. For a typical screening experiment, cells are inoculated into 96 well microtiter plates in 100 µL at plating densities ranging from 5,000 to 40,000 cells/well depending on the doubling time of individual cell lines. After cell inoculation, the microtiter plates are incubated at 37° C., 5% CO2, 95% air and 100% relative humidity for 24 h prior to addition of experimental drugs.
(§2) After 24 h, two plates of each cell line are fixed in situ with TCA, to represent a measurement of the cell population for each cell line at the time of drug addition (Tz). Experimental drugs are solubilized in dimethyl sulfoxide at 400-fold the desired final maximum test concentration and stored frozen prior to use. […]
(§3) Following drug addition, the plates are incubated for an additional 48 h at 37° C., 5 % CO2, 95% air, and 100% relative humidity. […] Bound stain is subsequently solubilized with 10 mM trizma base, and the absorbance is read on an automated plate reader at a wavelength of 515 nm. […] Using the seven absorbance measurements [time zero, (Tz), control growth, (C), and test growth in the presence of drug at the five concentration levels (Ti)], the percentage growth is calculated at each of the drug concentrations levels. Percentage growth inhibition is calculated as: […]

SK-OV3 = assay: NCI COMPARE panel (SRB growth inhibition), SK-OV3; assay type: cell-based; conditions: Homo sapiens, SK-OV-3; Ovarian Cancer, SK-OV3, 48 h
Method: as §1, §2, §3

NCI-H460 = assay: NCI COMPARE panel (SRB growth inhibition), NCI-H460; assay type: cell-based; conditions: Homo sapiens; Non-Small Cell Lung Cancer, NCI-H460, 48 h
Method: as §1, §2, §3

DNA-PK = DNA-PK (Homo sapiens, UniProt P78527); assay: Z'-LYTE / Adapta biochemical kinase assay, DNA-PK; conditions: for inhibition at 0.1 µM: concentration of 100 nM/liter, read-out: Percent Inhibition of target enzymes, DNA-PK
Excerpt: The Z′-LYTE® biochemical assay employs a fluorescence-based, coupled-enzyme format and is based on the differential sensitivity of phosphorylated and non-phosphorylated peptides to proteolytic cleavage. The peptide substrate is labeled with two fluorophores—one at each end—that make up a FRET pair. In the primary reaction, the kinase transfers the gamma-phosphate of ATP to a single tyrosine, serine or threonine residue in a synthetic FRET-peptide. In the secondary reaction, a site-specific protease recognizes and cleaves non-phosphorylated FRET-peptides. Phosphorylation of FRET-peptides suppresses cleavage by the Development Reagent. Cleavage disrupts FRET between the donor (i.e., coumarin) and acceptor (i.e., fluorescein) fluorophores on the FRET-peptide, whereas uncleaved, phosphorylated FRET-peptides maintain FRET. A ratiometric method, which calculates the ratio (the Emission Ratio) of donor emission to acceptor emission after excitation of the donor fluorophore at 400 nm, is used to quantitate reaction progress.
A significant benefit of this ratiometric method for quantitating reaction progress is the elimination of well-to-well variations in FRET-peptide concentration and signal intensities. As a result, the assay yields very high Z′-factor values (>0.7) at a low percent phosphorylation.
Both cleaved and uncleaved FRET-peptides contribute to the fluorescence signals and therefore to the Emission Ratio. The extent of phosphorylation of the FRET-peptide can be calculated from the Emission Ratio. The Emission Ratio will remain low if the FRET-peptide is phosphorylated (i.e., no kinase inhibition) and will be high if the FRET-peptide is non-phosphorylated (i.e., kinase inhibition).
Enzyme: The ADAPTA universal kinase assay is a homogenous, fluorescent based immunoassay for the detection of ADP. In contrast to ATP depletion assays, the ADAPTA assay is extremely sensitive to ADP formation such that a majority of the signal change occurs in the first 10-20% conversion of ATP to ADP. This makes the ADAPTA universal kinase assay ideally suited for use with low activity kinases.
The principle of the ADAPTA universal kinase assay is outlined below. The assay itself can be divided into two phases: a kinase reaction phase, and an ADP detection phase. In the kinase reaction phase, all components required for the kinase reaction are added to the well, and the reaction is allowed to incubate for 60 minutes. After the reaction, a detection solution consisting of a europium labeled anti-ADP antibody, an Alexa Fluor® 647 labeled ADP tracer, and EDTA (to stop the kinase reaction) is added to the assay well. ADP formed by the kinase reaction (in the absence of an inhibitor) will displace the Alexa Fluor® 647 labeled ADP tracer from the antibody, resulting in a decrease in the TR-FRET signal. In the presence of an inhibitor, the amount of ADP formed by the kinase reaction is reduced, and the resulting intact antibody-tracer interaction results in a high TR-FRET signal.
Test Compounds: The Test Compounds are screened in 1% DMSO (final) in the well. For 10 point titrations, 3-fold serial dilutions are conducted from the starting concentration of the customer’s choosing.
Peptide/Kinase Mixtures: All Peptide/Kinase Mixtures are diluted to a 2X working concentration in the appropriate Kinase Buffer.
ATP Solution: All ATP Solutions are diluted to a 4X working concentration in Kinase Buffer (50 mM HEPES pH 7.5, 0.01% BRIJ-35, 10 mM MgCl2,1 mM EGTA). ATP Km apparent is previously determined using a Z′-LYTE® assay.
Development Reagent Solution: The Development Reagent is diluted in Development Buffer.
Assay Protocol: Bar-coded Corning, low volume NBS, black 384-wellplate (Corning Cat. #4514) 1. 2.5 µL - 4X Test Compound or 100 nL 100X plus 2.4 µL kinase buffer. 2. 5 µL - 2X Peptide/Kinase Mixture. 3. 2.5 µL - 4X ATP Solution. 4. 30-second plate shake. 5. 60-minute Kinase Reaction incubation at room temperature. 6. 5 µL - Development Reagent Solution. 7. […]

Question: For `CS(=O)(=O)Nc1cc(-c2ccc3ncnc(Nc4cccc(Cl)c4F)c3c2)cnc1Cl` [Compound 6, N-[2-chloro-5-[4-(3-chloro-2-fluoro-anilino)quinazolin-6-yl]-3-pyridyl] methanesulfonamide], which GI50 (SNB-75) is on record?
Answer: ≤ 75 nM

Question: What about the GI50 (SK-OV3) of the same molecule?
Answer: 75 to 125 nM

Question: What about the GI50 (NCI-H460) of the same molecule?
Answer: > 250 nM

Question: What about the pIC50 (DNA-PK; DNA-PK) of the same molecule?
Answer: ≥ 8.70

Question: What about the inhibition at 0.1 µM (DNA-PK) of the same molecule?
Answer: > 90%

Question: How did the GI50 (SNB-75) turn out when `CS(=O)(=O)Nc1cc(-c2ccc3ncc(C#N)c(Nc4cccc(Cl)c4F)c3c2)cnc1Cl` [Compound 10, N-[2-chloro-5-[4-(3-chloro-2-fluoro-anilino)-3-cyano-6-quinolyl]-3-pyridyl]methanesulfonamide] was run?
Answer: ≤ 75 nM

Question: And the GI50 (SK-OV3)?
Answer: > 250 nM

Question: What about the GI50 (NCI-H460) of the same molecule?
Answer: > 250 nM

Question: And the inhibition at 0.1 µM (DNA-PK)?
Answer: > 90%
